Assay results from the NIST ThermoML archive (doi:10.1021/je9010486).

Assay: cn = amount concentration of the nth substance listed, in mol/dm3
Conditions: 101 kPa, Liquid

OC[C@@H](O)[C@H](O)[C@@H](O)CO [xylitol] + O
Conditions | mass density, 293.15 K [kg/m3] | mass density, 303.15 K [kg/m3] | mass density, 313.15 K [kg/m3] | mass density, 323.15 K [kg/m3] | viscosity, 293.15 K [mPa·s] | viscosity, 303.15 K [mPa·s] | viscosity, 313.15 K [mPa·s] | viscosity, 323.15 K [mPa·s]
c1 = 0.1 | 1003.31 | 1000.96 | 997.16 | 992.72 | 1.068 | 0.858 | 0.685 | 0.5687
c1 = 0.2 | 1008.5 | 1005.78 | 1002.18 | 997.77 | 1.089 | 0.8774 | 0.7057 | 0.5916
c1 = 0.3 | 1013.42 | 1010.64 | 1006.99 | 1002.55 | 1.128 | 0.9121 | 0.7305 | 0.6093
c1 = 0.4 | 1018.54 | 1015.65 | 1011.95 | 1007.51 | 1.165 | 0.9452 | 0.764 | 0.6384
c1 = 0.5 | 1023.6 | 1020.49 | 1016.87 | 1012.42 | 1.207 | 0.9829 | 0.7869 | 0.6596
c1 = 0.6 | 1028.66 | 1025.38 | 1021.78 | 1017.34 | 1.25 | 1.021 | 0.825 | 0.6779
c1 = 0.7 | 1033.72 | 1030.28 | 1026.7 | 1022.25 | 1.313 | 1.079 | 0.8476 | 0.7063
c1 = 0.8 | 1038.78 | 1035.17 | 1031.62 | 1027.17 | 1.362 | 1.123 | 0.8825 | 0.7344
c1 = 0.9 | 1043.84 | 1040.06 | 1036.54 | 1032.09 | 1.423 | 1.178 | 0.923 | 0.7618
c1 = 1 | 1048.9 | 1044.95 | 1041.45 | 1037 | 1.473 | 1.223 | 0.9632 | 0.7896

OC[C@@H](O)[C@@H](O)[C@H](O)[C@H](O)CO [mannitol] + O
Conditions | mass density, 293.15 K [kg/m3] | mass density, 303.15 K [kg/m3] | mass density, 313.15 K [kg/m3] | mass density, 323.15 K [kg/m3] | viscosity, 293.15 K [mPa·s] | viscosity, 303.15 K [mPa·s] | viscosity, 313.15 K [mPa·s] | viscosity, 323.15 K [mPa·s]
c1 = 0.1 | 1004.82 | 1002.13 | 998.28 | 994.21 | 1.096 | 0.8694 | 0.6961 | 0.5782
c1 = 0.2 | 1010.89 | 1008.14 | 1004.5 | 999.82 | 1.143 | 0.9398 | 0.7468 | 0.6062
c1 = 0.3 | 1016.96 | 1014.15 | 1010.72 | 1005.23 | 1.203 | 0.986 | 0.7918 | 0.6356
c1 = 0.4 | 1023.03 | 1020.16 | 1016.94 | 1011.02 | 1.285 | 1.036 | 0.8201 | 0.6706
c1 = 0.5 | 1029.1 | 1026.17 | 1023.16 | 1017.33 | 1.336 | 1.085 | 0.8642 | 0.7104
c1 = 0.6 | 1035.17 | 1032.18 | 1029.38 | 1024.45 | 1.4 | 1.142 | 0.8954 | 0.7458
c1 = 0.7 | 1041.24 | 1038.19 | 1035.6 | 1030.32 | 1.472 | 1.197 | 0.9383 | 0.7849
c1 = 0.8 | 1047.31 | 1044.2 | 1041.82 | 1036.78 | 1.553 | 1.253 | 0.9934 | 0.8456

OC[C@@H](O)[C@@H](O[C@H]1O[C@H](CO)[C@@H](O)[C@H](O)[C@H]1O)[C@H](O)[C@@H](O)CO [4-O-α-D-glucopyranosyl-D-glucitol] + O
Conditions | mass density, 293.15 K [kg/m3] | mass density, 303.15 K [kg/m3] | mass density, 313.15 K [kg/m3] | mass density, 323.15 K [kg/m3] | viscosity, 293.15 K [mPa·s] | viscosity, 303.15 K [mPa·s] | viscosity, 313.15 K [mPa·s] | viscosity, 323.15 K [mPa·s]
c1 = 0.1 | 1009.45 | 1007.32 | 1003.78 | 999.68 | 1.274 | 0.8869 | 0.6982 | 0.6083
c1 = 0.2 | 1018.37 | 1016.24 | 1012.7 | 1008.6 | 1.381 | 0.9747 | 0.7706 | 0.652
c1 = 0.3 | 1027.29 | 1025.16 | 1021.62 | 1017.52 | 1.513 | 1.104 | 0.8464 | 0.7175
c1 = 0.4 | 1036.21 | 1034.08 | 1030.54 | 1026.44 | 1.66 | 1.225 | 0.9455 | 0.7827
c1 = 0.5 | 1045.13 | 1043 | 1039.46 | 1035.36 | 1.848 | 1.361 | 1.06 | 0.8723
c1 = 0.6 | 1054.05 | 1051.92 | 1048.38 | 1044.28 | 2.009 | 1.536 | 1.177 | 0.9616
c1 = 0.7 | 1062.97 | 1060.84 | 1057.3 | 1053.2 | 2.173 | 1.684 | 1.301 | 1.061
c1 = 0.8 | 1071.89 | 1069.76 | 1066.22 | 1062.12 | 2.304 | 1.825 | 1.438 | 1.15
c1 = 0.9 | 1080.81 | 1078.68 | 1075.14 | 1071.04 | 2.49 | 1.947 | 1.591 | 1.242
c1 = 1 | 1089.73 | 1087.6 | 1084.06 | 1079.96 | 2.68 | 2.132 | 1.741 | 1.385
